Test system: hepatic mRNA expression in STAM™ mice
Assay: Murine STAM model of NASH-HCC: hepatic gene expression by quantitative RT-PCR
Format: in vivo, mouse
Details: n = 8, STAM mice, normalized to non-treated group
Method: A study was performed to evaluate the efficacy of gemcabene calcium salt hydrate Crystal Form 1 having a PSD90 of 52 μm as measured by laser light diffraction, in treating non-alcoholic steatosis hepatitis (NASH) in the murine STAM™ model of NASH-HCC.
Briefly, two-day old neonatal C57BL/6 male mice were administered low-dose streptozotocin (STZ), and were subsequently fed a HFC diet from 4 weeks of age. In this model, the mice typically develop liver steatosis and diabetes, reaching steatohepatitis within 3 weeks, followed by cirrhosis within 8 weeks, and carcinoma within 16 weeks. In the current study, mice were administered daily oral gemcabene calcium salt hydrate Crystal Form 1 starting at week 6 of age and were sacrificed at week 9. […] These STAM™ groups were orally administered from week 6 one of the following: water-vehicle, gemcabene calcium salt hydrate Crystal Form 1 at 30, 100 and 300 mg/kg daily, or telmisartan ([…]®) 10 mg/kg daily. […] All groups were sacrificed at week 9. Vehicle, gemcabene calcium salt hydrate Crystal Form 1, or telmisartan were administered by oral gavage once daily.
Various gene expression markers of liver metabolism were evaluated by Real-Time PCR (RT-PCR) in all mouse groups. Total RNA was extracted from liver samples using RNAiso (Takara Bio, Japan) according to the manufacturer's instructions. […] of RNA was reverse-transcribed using a reaction mixture containing 4.4 mM MgCl2 (F. Hoffmann-La Roche, Switzerland), 40 U RNase inhibitor (Toyobo, Japan), 0.5 mM dNTP (Promega, USA), 6.28 μM random hexamer (Promega), 5×first strand buffer (Promega), 10 mM dithiothreitol (Invitrogen, USA) and 200 U MMLV-RT (Invitrogen) in a final volume of 20 μL. The reaction was carried out for 1 hour at 37° C., followed by 5 minutes at 99° C. Real-time PCR was performed using real-time PCR DICE and SYBR premix Taq (Takara Bio). To calculate the relative mRNA expression level, the expression of each gene was normalized to that of reference gene 36B4 (gene symbol: RplpO). Information of PCR-primer sets is described in Tables 37A-37C. Statistical analyses were performed using the Bonferroni Multiple Comparison Test on GraphPad Prism 6 (GraphPad Software Inc., USA). P values <0.05 were considered statistically significant. Results are expressed as mean±SD.
In order to calculate the relative mRNA expression level, the expression of each gene was normalized to that of the reference gene 36B4 (gene symbol: RplpO). The gene expression levels were measured by quantitative RT-PCR. Results were normalized with values for the vehicle-treated normal group. […] Gemcabene calcium salt hydrate Crystal Form 1 (PSD90=52 μm) modulated the mRNA expression of many hepatic genes that play a significant role in the liver homeostasis and injury.

With `CC(C)(CCCCOCCCCC(C)(C)C(=O)O)C(=O)O` [gemcabene, 6-(5-carboxy-5-methyl-hexyloxy)-2,2-dimethyl-hexanoic acid] the “CXCL1/KC gene expression (mean ± SD)” value (30 mg/kg) was 0.8 ± 0.4, the “Fetuin-A gene expression (mean ± SD)” value (30 mg/kg) was 1.1 ± 0.4 and the “IL-1β gene expression (mean ± SD)” value (30 mg/kg) was 1.0 ± 0.5. The “IL-6 gene expression (mean ± SD)” value (30 mg/kg) was 4.6 ± 4.7, the “LDL receptor gene expression (mean ± SD)” value (30 mg/kg) was 0.9 ± 0.2 and the “LPL gene expression (mean ± SD)” value (30 mg/kg) was 3.8 ± 0.9. The “MCP-1 gene expression (mean ± SD)” value (30 mg/kg) was 3.2 ± 1.5, the “MIP-1β gene expression (mean ± SD)” value (30 mg/kg) was 5.4 ± 3.2 and the “MMP-2 gene expression (mean ± SD)” value (30 mg/kg) was 1.7 ± 0.5. The “NF-κB gene expression (mean ± SD)” value (30 mg/kg) was 1.3 ± 0.2, the “PNPLA3 gene expression (mean ± SD)” value (30 mg/kg) was 0.3 ± 0.1 and the “SCD1 gene expression (mean ± SD)” value (30 mg/kg) was 0.2 ± 0.1. The “SREBP-1 gene expression (mean ± SD)” value (30 mg/kg) was 0.9 ± 0.2, the “Sulf-2 gene expression (mean ± SD)” value (30 mg/kg) was 5.1 ± 1.1 and the “TIMP-1 gene expression (mean ± SD)” value (30 mg/kg) was 9.9 ± 4.9. The “TNF-α gene expression (mean ± SD)” value (30 mg/kg) was 4.0 ± 1.8, the “α-SMA gene expression (mean ± SD)” value (30 mg/kg) was 2.6 ± 0.6 and the “ACC1 gene expression (mean ± SD)” value (100 mg/kg) was 0.7 ± 0.1. For the same molecule, the “ACC2 gene expression (mean ± SD)” value (100 mg/kg) was 0.4 ± 0.1, the “ADH-4 gene expression (mean ± SD)” value (100 mg/kg) was 0.6 ± 0.1 and the “ANGPTL3 gene expression (mean ± SD)” value (100 mg/kg) was 0.4 ± 0.1. For the same molecule, the “ANGPTL4 gene expression (mean ± SD)” value (100 mg/kg) was 1.6 ± 0.3, the “ANGPTL8 gene expression (mean ± SD)” value (100 mg/kg) was 0.4 ± 0.1 and the “ApoC-III gene expression (mean ± SD)” value (100 mg/kg) was 0.5 ± 0.0. The “CCR2 gene expression (mean ± SD)” value (100 mg/kg) was 1.6 ± 0.4, the “CCR5 gene expression (mean ± SD)” value (100 mg/kg) was 1.4 ± 0.3 and the “CRP gene expression (mean ± SD)” value (100 mg/kg) was 0.6 ± 0.1. For the same molecule, the “CXCL1/KC gene expression (mean ± SD)” value (100 mg/kg) was 0.2 ± 0.1, the “Fetuin-A gene expression (mean ± SD)” value (100 mg/kg) was 0.7 ± 0.1 and the “IL-1β gene expression (mean ± SD)” value (100 mg/kg) was 1.1 ± 0.5. The “IL-6 gene expression (mean ± SD)” value (100 mg/kg) was 0.9 ± 0.3, the “LDL receptor gene expression (mean ± SD)” value (100 mg/kg) was 0.9 ± 0.2 and the “LPL gene expression (mean ± SD)” value (100 mg/kg) was 7.4 ± 0.9. The “MCP-1 gene expression (mean ± SD)” value (100 mg/kg) was 1.7 ± 0.7, the “MIP-1β gene expression (mean ± SD)” value (100 mg/kg) was 2.3 ± 0.9 and the “MMP-2 gene expression (mean ± SD)” value (100 mg/kg) was 0.5 ± 0.2. For the same molecule, the “NF-κB gene expression (mean ± SD)” value (100 mg/kg) was 0.9 ± 0.1, the “PNPLA3 gene expression (mean ± SD)” value (100 mg/kg) was 0.2 ± 0.1 and the “SCD1 gene expression (mean ± SD)” value (100 mg/kg) was 0.3 ± 0.1. The “SREBP-1 gene expression (mean ± SD)” value (100 mg/kg) was 0.9 ± 0.2, the “Sulf-2 gene expression (mean ± SD)” value (100 mg/kg) was 3.8 ± 0.7 and the “TIMP-1 gene expression (mean ± SD)” value (100 mg/kg) was 3.8 ± 1.6. The “TNF-α gene expression (mean ± SD)” value (100 mg/kg) was 2.0 ± 0.8, the “α-SMA gene expression (mean ± SD)” value (100 mg/kg) was 2.4 ± 0.9 and the “ACC1 gene expression (mean ± SD)” value (300 mg/kg) was 0.8 ± 0.1. The “ACC2 gene expression (mean ± SD)” value (300 mg/kg) was 0.5 ± 0.1, the “ADH-4 gene expression (mean ± SD)” value (300 mg/kg) was 0.5 ± 0.1 and the “ANGPTL3 gene expression (mean ± SD)” value (300 mg/kg) was 0.4 ± 0.1. The “ANGPTL4 gene expression (mean ± SD)” value (300 mg/kg) was 1.7 ± 0.3, the “ANGPTL8 gene expression (mean ± SD)” value (300 mg/kg) was 0.2 ± 0.1 and the “ApoC-III gene expression (mean ± SD)” value (300 mg/kg) was 0.4 ± 0.1. The “CCR2 gene expression (mean ± SD)” value (300 mg/kg) was 1.7 ± 0.7, the “CCR5 gene expression (mean ± SD)” value (300 mg/kg) was 1.3 ± 0.3 and the “CRP gene expression (mean ± SD)” value (300 mg/kg) was 0.5 ± 0.1. The “CXCL1/KC gene expression (mean ± SD)” value (300 mg/kg) was 0.2 ± 0.1, the “Fetuin-A gene expression (mean ± SD)” value (300 mg/kg) was 0.7 ± 0.1 and the “IL-1β gene expression (mean ± SD)” value (300 mg/kg) was 0.7 ± 0.3. For the same molecule, the “IL-6 gene expression (mean ± SD)” value (300 mg/kg) was 0.6 ± 0.2, the “LDL receptor gene expression (mean ± SD)” value (300 mg/kg) was 0.8 ± 0.1 and the “LPL gene expression (mean ± SD)” value (300 mg/kg) was 6.9 ± 1.1. The “MCP-1 gene expression (mean ± SD)” value (300 mg/kg) was 1.6 ± 0.7, the “MIP-1β gene expression (mean ± SD)” value (300 mg/kg) was 2.8 ± 1.4 and the “MMP-2 gene expression (mean ± SD)” value (300 mg/kg) was 0.9 ± 0.2. For the same molecule, the “NF-κB gene expression (mean ± SD)” value (300 mg/kg) was 0.8 ± 0.1, the “PNPLA3 gene expression (mean ± SD)” value (300 mg/kg) was 0.2 ± 0.2 and the “SCD1 gene expression (mean ± SD)” value (300 mg/kg) was 0.4 ± 0.2. The “SREBP-1 gene expression (mean ± SD)” value (300 mg/kg) was 0.7 ± 0.1, the “Sulf-2 gene expression (mean ± SD)” value (300 mg/kg) was 3.3 ± 0.9 and the “TIMP-1 gene expression (mean ± SD)” value (300 mg/kg) was 4.4 ± 2.1. The “TNF-α gene expression (mean ± SD)” value (300 mg/kg) was 1.9 ± 0.7 and the “α-SMA gene expression (mean ± SD)” value (300 mg/kg) was 2.5 ± 0.7.

From patent US20200253877A1, “GEMCABENE, PHARMACEUTICALLY ACCEPTABLE SALTS THEREOF, COMPOSITIONS THEREOF AND METHODS OF USE THEREFOR” (NEUROBO PHARMACEUTICALS, INC., priority 2018, published 2020)
